The subject of one data set is L1210. The data set is described as follows: cells. Format: cell-based, mouse. Conditions: Mus musculus.
A further data set concerns HCT116. The data set is described as follows: cells. Format: cell-based, human. Conditions: Homo sapiens.
Another data set deals with HCT116/VM46. The data set is described as follows: cells. It is filed as cell-based, human. The following applies: for IC50: Homo sapiens.
In data set [1] the test system is L1210, HCT116, HCT116/VM46. The data set is described as follows: cytotoxic activity in the cell-based assays, overall comparison with the parent compound. Conditions: for enhancement of cytotoxic activity by C-10′ fluorine substitution: vs natural product without fluorine; for fold more potent than the natural products themselves: vs vinblastine / vincristine, Table 2C.

Setting [2] is: L1210, Table 2B, C10′-substituted vinblastines, single evaluations, read-out: IC50 (nM) L1210.
Where [3] appears, read: HCT-116, Table 2B, C10′-substituted vinblastines, single evaluations, read-out: IC50 (nM) HCT116.
Setting [4] is: HCT-116/VM46, Table 2B, C10′-substituted vinblastines, single evaluations, read-out: IC50 (nM) HCT116/VM46.

Read-outs that look alike come from different tables or passages of the source. A value given as a limit tells only on which side of the number the result lay.

Consider `CCC1=C[C@@H]2CN(CCc3c([nH]c4ccc(F)cc34)[C@@](C(=O)OC)(c3cc4c(cc3OC)N(C)C3C(O)(C(=O)OC)[C@H](OC(C)=O)[C@]5(CC)C=CCN6CC[C@]43[C@@H]65)C2)C1` (some centres unmarked) [Compound 19a, 10′-fluoroanhydrovinblastine], for which the IC50 in the data set on L1210 (L1210, read-out: IC50 (nM) L1210) was 30 nM; in the data set with HCT116 (HCT-116, read-out: IC50 (nM) HCT116), 50 nM; in the data set with HCT116/VM46 (HCT-116/VM46, read-out: IC50 (nM) HCT116/VM46) it was 290 nM. Also, the “enhancement of cytotoxic activity by C-10′ fluorine substitution” value in data set [1] is on record as “about 8 fold”.
`CC[C@]1(O)C[C@@H]2CN(CCc3c([nH]c4ccc(F)cc34)[C@@](C(=O)OC)(c3cc4c(cc3OC)N(C)C3C(O)(C(=O)OC)[C@H](OC(C)=O)[C@]5(CC)C=CCN6CC[C@]43[C@@H]65)C2)C1` (some centres unmarked) [Compound 19b, 10′-fluorovinblastine]: the values for the IC50 in the data set on L1210 (setting [2]), with HCT116 (setting [3]) and in the data set on HCT116/VM46 (setting [4]) were 0.7 nM, 0.9 nM and 80 nM, respectively. Also, in the data set on HCT116/VM46 (vs vinblastine), the “increased activity against vinblastine resistant cell line (HCT116/VM46)” value is recorded as “about 8 fold”. The “enhancement of cytotoxic activity by C-10′ fluorine substitution” value in data set [1] was “about 8 fold”. Also, the “fold more potent than the natural products themselves” value in data set [1] was “about 8 fold”.
As for `CC[C@]1(O)C[C@@H]2CN(CCc3c([nH]c4ccc(C)cc34)[C@@](C(=O)OC)(c3cc4c(cc3OC)N(C)C3C(O)(C(=O)OC)[C@H](OC(C)=O)[C@]5(CC)C=CCN6CC[C@]43[C@@H]65)C2)C1` (some centres unmarked) [Compound 21b, 10′-methylvinblastine], the figures for the IC50 in the data set with L1210 (setting [2]), in the data set with HCT116 (setting [3]) and with HCT116/VM46 (setting [4]) were 7.8 nM, 7.8 nM and 600 nM, respectively.
For the compound `CCC1=C[C@@H]2CN(CCc3c([nH]c4ccc(OC)cc34)[C@@](C(=O)OC)(c3cc4c(cc3OC)N(C)C3C(O)(C(=O)OC)[C@H](OC(C)=O)[C@]5(CC)C=CCN6CC[C@]43[C@@H]65)C2)C1` (some centres unmarked) [Compound 22a, 10′-methoxyanhydrovinblastine], the IC50 with L1210 (L1210, Table 2A, C10′-substituted anhydrovinblastines, single evaluations, read-out: IC50 (nM) L1210) was determined as 550 nM; with HCT116 (HCT-116, Table 2A, C10′-substituted anhydrovinblastines, single evaluations, read-out: IC50 (nM) HCT116), 640 nM; in the data set on HCT116/VM46 (HCT-116/VM46, Table 2A, C10′-substituted anhydrovinblastines, single evaluations, read-out: IC50 (nM) HCT116/VM46), 5500 nM.
On to `CC[C@]1(O)C[C@@H]2CN(CCc3c([nH]c4ccc(OC)cc34)[C@@](C(=O)OC)(c3cc4c(cc3OC)N(C)C3C(O)(C(=O)OC)[C@H](OC(C)=O)[C@]5(CC)C=CCN6CC[C@]43[C@@H]65)C2)C1` (some centres unmarked) [Compound 22b, 10′-methoxyvinblastine], for which the IC50 is 670 nM with L1210 (setting [2]), 720 nM in the data set on HCT116 (setting [3]) and more than 10000 nM in the data set on HCT116/VM46 (setting [4]).
`CC[C@]1(O)C[C@@H]2CN(CCc3c([nH]c4ccc(F)cc34)[C@@](C(=O)OC)(c3cc4c(cc3OC)N(C=O)C3C(O)(C(=O)OC)[C@H](OC(C)=O)[C@]5(CC)C=CCN6CC[C@]43[C@@H]65)C2)C1` (some centres unmarked) [Compound 28, 10′-fluorovincristine]: the IC50 came out at 0.7 nM in the data set with L1210 (L1210, Table 2C, side-by-side, multiple examinations with several independent samples, read-out: IC50 (nM) L1210); 1 nM with HCT116 (HCT-116, Table 2C, side-by-side, multiple examinations with several independent samples, read-out: IC50 (nM) HCT116); 90 nM with HCT116/VM46 (HCT-116/VM46, Table 2C, side-by-side, multiple examinations with several independent samples, read-out: IC50 (nM) HCT116/VM46). The “fold more potent than the natural products themselves” value in data set [1] is reported as “about 8 fold”.

These data come from US8940754B2, “10′-fluorinated Vinca alkaloids provide enhanced biological activity against MDR cancer cells” (priority 2010, dated 2015).
